The nature of series [1]: Cmax in CB17SCID mouse at 125 mg/kg, po and measured upto 24 hrs. Conditions: in vivo. Also noted: dose 125 mg/kg, time < 24 hrs, route po. It counts as ADME, organism-based.
Series [2] is described as follows: AUC in CB17SCID mouse at 125 mg/kg, po and measured upto 24 hrs. The format is ADME, organism-based. The arrangement: dose 125 mg/kg, time < 24 hrs, route po. The conditions noted are these: in vivo.
Series [3] deals with Tumour suppressor p53/oncoprotein Mdm2 (Homo sapiens, UniProt Q00987). The series is described as follows: Inhibition of recombinant human MDM2/p53 interaction. It counts as protein assay.
Chain of Tumour suppressor p53/oncoprotein Mdm2 (P04637 whole entry): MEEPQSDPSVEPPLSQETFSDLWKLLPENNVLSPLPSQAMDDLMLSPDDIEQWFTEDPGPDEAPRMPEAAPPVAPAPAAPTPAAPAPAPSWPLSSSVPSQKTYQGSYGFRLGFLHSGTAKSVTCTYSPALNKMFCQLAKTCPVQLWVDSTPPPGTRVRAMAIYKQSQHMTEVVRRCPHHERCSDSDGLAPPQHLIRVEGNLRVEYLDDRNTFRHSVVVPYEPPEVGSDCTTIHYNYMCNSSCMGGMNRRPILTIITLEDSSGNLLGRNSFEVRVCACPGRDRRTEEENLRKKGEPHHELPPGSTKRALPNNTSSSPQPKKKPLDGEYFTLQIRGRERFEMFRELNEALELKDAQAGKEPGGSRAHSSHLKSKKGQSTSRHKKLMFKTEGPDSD
Chain of Tumour suppressor p53/oncoprotein Mdm2 (Q00987 whole entry): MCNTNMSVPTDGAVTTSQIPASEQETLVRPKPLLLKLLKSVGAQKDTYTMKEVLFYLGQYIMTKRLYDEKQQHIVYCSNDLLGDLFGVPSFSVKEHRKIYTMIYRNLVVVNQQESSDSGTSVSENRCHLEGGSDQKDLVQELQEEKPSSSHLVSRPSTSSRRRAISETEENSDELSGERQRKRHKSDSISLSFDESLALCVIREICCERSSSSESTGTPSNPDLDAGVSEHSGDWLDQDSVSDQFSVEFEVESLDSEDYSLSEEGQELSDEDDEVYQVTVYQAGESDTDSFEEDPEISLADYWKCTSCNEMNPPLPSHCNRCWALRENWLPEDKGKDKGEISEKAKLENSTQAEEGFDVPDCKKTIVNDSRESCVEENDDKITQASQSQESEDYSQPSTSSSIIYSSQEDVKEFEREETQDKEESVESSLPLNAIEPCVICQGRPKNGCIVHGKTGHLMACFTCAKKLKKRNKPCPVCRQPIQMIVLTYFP
In another series the test system is SH-SY5Y. The series is described as follows: Antiproliferative activity against human SH-SY5Y cells harboring wildtype TP53 assessed as reduction in cell viability and measured upto 72 hrs by XTT assay. The format is functional, cell-based.
Series [4] in a line: Antiproliferative activity against human Kelly cells harboring TP53 mutant assessed as reduction in cell viability and measured upto 72 hrs by XTT assay. It counts as functional, cell-based.
In the next series the test system is SK-N-SH. The series is described as follows: Antiproliferative activity against human SK-N-SH cells harboring wildtype TP53 assessed as reduction in cell viability and measured upto 72 hrs by XTT assay. The format is functional, cell-based.
The subject of another series is IMR-32. The experiment in a line: Antiproliferative activity against human IMR-32 cells harboring wildtype TP53 assessed as reduction in cell viability and measured upto 72 hrs by XTT assay. The format is functional, cell-based. Conditions: IMR-32, 72 h.
In the next series the test system is IMR-5. The series is described as follows: Antiproliferative activity against human IMR-5 cells harboring wildtype TP53 assessed as reduction in cell viability and measured upto 72 hrs by XTT assay. The format is functional, cell-based. Conditions: IMR-5, 72 h.
Series [5] is described as follows: Antiproliferative activity against human LA-N-5 cells harboring wildtype TP53 assessed as reduction in cell viability and measured upto 72 hrs by XTT assay. It counts as functional, cell-based. The conditions noted are these: LA-N-5, 72 h.
Series [6] is described as follows: Oral bioavailability in Sprague-Dawley rat at 2 mg/kg by LC-MS/MS method. The conditions noted are these: in vivo. It counts as ADME, organism-based.
Series [7] is described as follows: Oral bioavailability in Beagle dog at 2 mg/kg by LC-MS/MS method. The format is ADME, organism-based, Canis lupus familiaris. The conditions noted are these: in vivo.
A short description of series [8]: Oral bioavailability in CD-1 mouse at 5 mg/kg by LC-MS/MS method. The format is ADME, organism-based. Conditions: in vivo.
A short description of series [9]: Oral bioavailability in cynomolgus monkey at 2 mg/kg by LC-MS/MS method. The format is ADME, organism-based, Macaca fascicularis. Conditions: in vivo.
In another series the test system is SJSA-1. The series is described as follows: animal or person. The conditions noted are these: Mus musculus, SJSA-1, po, read-out: TGI.
Another series is described as follows: animal or person. Conditions: Homo sapiens, MHM, po, read-out: TGI.

Consider 5 molecules from ChEMBL document CHEMBL5126548, “Small-molecule MDM2 inhibitors in clinical trials for cancer therapy” (Eur J Med Chem, 2022).

Molecules are shown by their SMILES.

Description for SJSA-1: Antitumor activity against human SJSA-1 xenografted Balb/c mouse assessed as tumor growth inhibition at 50 mg/kg,po administered daily by caliper method

As to `CCC[C@H]1N(C(=O)c2ncccc2C(F)(F)F)CCC[C@@]1(Oc1csc(C(F)(F)F)c1)C(=O)N1CCC(O)(c2ccccc2O[C@H](C)CCC2(C(=O)O)CCC2)CC1`, the peak level in [1] (Cmax) was 40 µM. This molecule also displayed an AUC at 24 h in [2] of 200 µM·h.

With `COc1ccccc1-n1nc2c(c1C(C)C)[C@H](c1ccc(Cl)cc1C)N(c1cc(Cl)cc(OCCN(C)C)c1)C2=O`, the IC50 in series [3] amounted to 0.13 nM.

In the case of `CC1(C)CCC2(CC1)N[C@H](C(=O)N[C@@H]1CC[C@@H](C(N)=O)OC1)[C@H](c1ccnc(Cl)c1F)[C@]21C(=O)Nc2cc(Cl)ccc21`, the IC50 was 17.7 nM in the series with SH-SY5Y; more than 2000 nM in [4]; 21.9 nM with SK-N-SH; 56.2 nM in the series with IMR-32; 25.7 nM in the series on IMR-5; 44.1 nM in series [5].

`CC(C)[C@@H](CS(=O)(=O)C(C)C)N1C(=O)[C@@](C)(CC(=O)O)C[C@H](c2cccc(Cl)c2)[C@H]1c1ccc(Cl)cc1` [NAVTEMADLIN]: the bioavailability is more than 42% in series [6], 18% in [7], more than 43% in series [8] and more than 44% in series [9].

In the case of `CCOc1cc(C(C)(C)C)ccc1C1=N[C@@](C)(c2ccc(Cl)cc2)[C@@](C)(c2ccc(Cl)cc2)N1C(=O)N1CCN(CCCS(C)(=O)=O)CC1` [RO-5045337], the inhibition in vivo at 50 mg/kg in the series on SJSA-1 is 74%; in “animal or person”, 69%.
